Earlier results, collected in patent publication US7902187B2, “6-substituted 2-(benzimidazolyl)purine and purinone derivatives for immunosuppression” (Wyeth LLC, priority 2006, dated 2011).
Like-named read-outs stand apart in the source and are kept apart here.

Columns and labels:
[1] = murine model of heart transplantation; cited from earlier work
[2] = primate model of kidney transplantation; cited from earlier work
[3] = NOD mouse; cited from earlier work
[4] = in vivo; cited from earlier work
[5] = target: T1, Jak3 (Homo sapiens, UniProt P52333); conditions: leukemia cells; cited from earlier work
T1 construct: host or cells: leukemia cells (not specified)
T1 sequence (P52333 1-1124): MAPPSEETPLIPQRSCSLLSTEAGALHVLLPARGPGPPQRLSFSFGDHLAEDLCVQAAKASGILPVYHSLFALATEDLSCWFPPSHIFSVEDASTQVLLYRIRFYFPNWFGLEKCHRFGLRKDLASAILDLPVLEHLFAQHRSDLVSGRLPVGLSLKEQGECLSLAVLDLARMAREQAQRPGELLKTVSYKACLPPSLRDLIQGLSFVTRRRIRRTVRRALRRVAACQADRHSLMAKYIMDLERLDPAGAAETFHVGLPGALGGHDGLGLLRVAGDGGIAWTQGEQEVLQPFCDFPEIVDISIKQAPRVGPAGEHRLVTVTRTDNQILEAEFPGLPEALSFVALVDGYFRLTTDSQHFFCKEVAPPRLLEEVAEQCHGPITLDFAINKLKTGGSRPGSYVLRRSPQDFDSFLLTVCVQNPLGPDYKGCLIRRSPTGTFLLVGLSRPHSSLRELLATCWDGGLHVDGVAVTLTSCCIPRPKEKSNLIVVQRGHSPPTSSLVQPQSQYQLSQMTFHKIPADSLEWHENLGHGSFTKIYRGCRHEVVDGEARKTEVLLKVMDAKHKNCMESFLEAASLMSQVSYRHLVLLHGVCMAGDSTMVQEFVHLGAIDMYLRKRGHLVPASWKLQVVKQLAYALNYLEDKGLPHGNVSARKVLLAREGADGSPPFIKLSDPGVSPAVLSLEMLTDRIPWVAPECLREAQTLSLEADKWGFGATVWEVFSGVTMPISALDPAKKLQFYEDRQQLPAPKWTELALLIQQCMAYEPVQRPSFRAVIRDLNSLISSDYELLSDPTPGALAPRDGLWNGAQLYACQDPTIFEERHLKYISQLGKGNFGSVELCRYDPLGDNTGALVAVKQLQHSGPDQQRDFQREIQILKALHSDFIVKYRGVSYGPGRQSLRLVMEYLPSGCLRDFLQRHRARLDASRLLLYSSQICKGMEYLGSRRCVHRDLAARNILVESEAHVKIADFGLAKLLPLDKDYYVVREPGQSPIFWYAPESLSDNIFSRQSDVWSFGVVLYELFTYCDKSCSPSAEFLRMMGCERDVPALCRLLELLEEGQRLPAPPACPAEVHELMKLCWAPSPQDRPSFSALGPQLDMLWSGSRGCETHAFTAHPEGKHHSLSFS

SMILES	animal survival [1]	animal survival [2]	spontaneous autoimmune diabetes development [3]	severity of GVHD [4]	selectivity of Jak3 inhibition [5]
C[C@@H]1CCN(C(=O)CC#N)C[C@@H]1N(C)c1ncnc2[nH]ccc12 [CP-690,550]	prolong animal survival	prolong animal survival			
COc1cc2ncnc(Nc3ccc(O)cc3)c2cc1OC [JANEX-1]			prevent spontaneous autoimmune diabetes development	attenuate the severity of GVHD	selective inhibitors of Jak3
COc1cc2ncnc(Nc3ccc(O)c(Br)c3)c2cc1OC [WHI-P154]					selective inhibitors of Jak3
